We go through eleven compounds from ChEMBL document CHEMBL1145291, “Metal complexes with superoxide dismutase-like activity as candidates for anti-prion drug” (Bioorg Med Chem Lett, 2006).

Data set [1] in a line: Inhibition of PrP-res formation in prion Fukuoka1 strain infected mouse N2a#58 cells relative to control. The class given is functional.
Data set [2] deals with ScN2a. Description: Inhibition of PrP-res formation in mouse ScN2a cells relative to control. Type of data set: functional, cell-based.
Data set [3] concerns ScN2a. Description: Cytotoxicity against mouse ScN2a cells up to 1 uM. Type of data set: cell-based.
Data set [4] is described as follows: Cytotoxicity against prion Fukuoka1 strain infected mouse N2a#58 cells up to 1uM. The class given is cell-based.
Data set [5] in a line: Cytotoxicity against prion Fukuoka1 strain infected mouse N2a#58 cells at 100 uM. The class given is cell-based.
Data set [6] has as its system ScN2a. The data set can be described thus: Cytotoxicity against mouse ScN2a cells at 100 uM. The class given is cell-based.

Regarding `C[n+]1ccc(-c2c3nc(c(-c4cc[n+](C)cc4)c4ccc([nH]4)c(-c4cc[n+](C)cc4)c4nc(c(-c5cc[n+](C)cc5)c5ccc2[nH]5)C=C4)C=C3)cc1`, the IC50 in data set [1] is 160 nM; with ScN2a [2], 130 nM.

With `c1ccc2cc(-c3ccc4ccccc4n3)ncc2c1`, the IC50 is 250 nM in data set [1] and 5 nM with ScN2a [2]. In addition, the Activity result (in the data set with ScN2a [3]; in data set [4]) was “Not Active” each time.

As to `O=C([O-])c1cc(-c2cc(C(=O)[O-])c3ccccc3n2)nc2ccccc12.[Na+].[Na+]`, the Activity entry (with ScN2a [3]; in data set [4]) was “Not Active” each time.

Consider `O=C(O)c1ccc(-c2c3nc(c(-c4ccc(C(=O)O)cc4)c4ccc([nH]4)c(-c4ccc(C(=O)O)cc4)c4ccc([nH]4)c(-c4ccc(C(=O)O)cc4)c4nc2C=C4)C=C3)cc1`, for which the results for the half-inhibitory concentration (IC50) (in data set [1]; in the data set on ScN2a [2]) were 160 nM and 250 nM, respectively.

For the compound `Cc1cc(-c2ccccc2)c2ccc3c(-c4ccccc4)cc(C)nc3c2n1` [BATHOCUPROINE], the half-maximal inhibitory concentration (IC50) in data set [1] worked out at 200 nM; in the data set with ScN2a [2], 80 nM. Also, the Activity entry (in the data set with ScN2a [3]; in data set [4]) was “Not Active” each time.

For the compound `Cc1ccc2ccc3ccc(C)nc3c2n1` [NEOCUPROINE], the IC50 in the data set on ScN2a [2] is 80 nM. Further, the Activity entry (with ScN2a [3]; in data set [4]) was “Not Active” throughout.

`Oc1cccc2cccnc12` [OXYQUINOLINE]: the result (in data set [5]; with ScN2a [6]) was Active.

Take `c1cnc2c(c1)ccc1cccnc12` [PHENANTHROLINE]: the result (in data set [5]; with ScN2a [6]) was Active.

In the case of `c1ccc(-c2cccc(-c3ccccn3)n2)nc1` [TERPYRIDINE], the outcome (in data set [5]; in the data set with ScN2a [6]) was Active.

For `O=S(=O)(O)c1ccc(-c2c3nc(c(-c4ccc(S(=O)(=O)O)cc4)c4ccc([nH]4)c(-c4ccc(S(=O)(=O)O)cc4)c4ccc([nH]4)c(-c4ccc(S(=O)(=O)O)cc4)c4nc2C=C4)C=C3)cc1` [TETRAPHENYLPORPHINE TETRASULFONIC ACID], the results for the 50% inhibitory concentration (IC50) (in data set [1]; in the data set on ScN2a [2]) were 160 nM and 200 nM, respectively.

Turning to `C1=Cc2nc1c(-c1ccccc1)c1nc(c(-c3ccccc3)c3ccc([nH]3)c(-c3ccccc3)c3ccc([nH]3)c2-c2ccccc2)C=C1` [TETRAPHENYLPORPHYRIN], the IC50 in data set [1] worked out at 320 nM; with ScN2a [2], 10 nM.

For orientation: IC50 means the midpoint of a concentration-inhibition curve. High values mean weaker potency, low ones greater potency.
